This note sets out measurements from BindingDB's records for PubMed 9353393 (Torrey Pines Institute For Molecular Studies, 1997).

Residues, ends and D or L forms follow the SMILES beside them.

The target of the experiment is Nociceptin receptor (Mus musculus, UniProt P35377).
Sequence of Nociceptin receptor (P35377 whole entry): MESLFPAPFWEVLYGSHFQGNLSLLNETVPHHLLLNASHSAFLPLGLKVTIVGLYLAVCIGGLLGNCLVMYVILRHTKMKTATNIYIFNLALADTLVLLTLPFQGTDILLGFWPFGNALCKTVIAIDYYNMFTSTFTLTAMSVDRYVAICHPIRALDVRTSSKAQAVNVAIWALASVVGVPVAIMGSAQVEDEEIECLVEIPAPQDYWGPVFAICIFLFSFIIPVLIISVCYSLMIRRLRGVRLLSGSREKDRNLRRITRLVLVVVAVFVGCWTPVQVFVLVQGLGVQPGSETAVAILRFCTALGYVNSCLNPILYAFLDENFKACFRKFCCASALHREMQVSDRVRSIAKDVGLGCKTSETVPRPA
As for `CC(=O)N[C@@H](CCCNC(=N)N)C(=O)N[C@@H](Cc1ccc(O)cc1)C(=O)N[C@@H](Cc1ccc(O)cc1)C(=O)N[C@@H](CCCNC(=N)N)C(=O)N[C@@H](Cc1c[nH]c2ccccc12)C(=O)N[C@@H](CCCCN)C(N)=O` [CAS_200959-47-3] (Ac-RYYRWK-NH2), the affinity, expressed as Ki, was 0.71 nM.
Under `CC(=O)N[C@@H](CCCNC(=N)N)C(=O)N[C@@H](Cc1ccc(O)cc1)C(=O)N[C@@H](Cc1ccc(O)cc1)C(=O)N[C@@H](CCCCN)C(=O)N[C@@H](Cc1c[nH]c2ccccc12)C(=O)N[C@@H](CCCN=C(N)N)C(N)=O` [Ac-RYYKWR-NH2] (Ac-RYYKWR-NH2) stands 1.47 nM.
Under `CC(=O)N[C@@H](CCCNC(=N)N)C(=O)N[C@@H](Cc1ccc(O)cc1)C(=O)N[C@@H](Cc1ccc(O)cc1)C(=O)N[C@@H](CCCNC(=N)N)C(=O)N[C@@H](Cc1c[nH]c2ccccc12)C(=O)N[C@@H](CCCN=C(N)N)C(N)=O` [Ac-RYYRWR-NH2] (Ac-RYYRWR-NH2) stands 0.6 nM; under `CC(C)C[C@H](NC(=O)[C@H](CCCCN)NC(=O)[C@H](CCCN=C(N)N)NC(=O)[C@H](C)NC(=O)[C@H](CO)NC(=O)[C@H](CCCCN)NC(=O)[C@H](CCCN=C(N)N)NC(=O)[C@H](C)NC(=O)CNC(=O)[C@@H](NC(=O)[C@H](Cc1ccccc1)NC(=O)CNC(=O)CNC(=O)[C@@H](N)Cc1ccccc1)[C@@H](C)O)C(=O)N[C@@H](C)C(=O)N[C@@H](CC(N)=O)C(=O)N[C@@H](CCC(N)=O)C(=O)O` [OFQ 1-17], 0.43 nM; under `CC[C@H](C)[C@H](NC(=O)[C@H](CCCN=C(N)N)NC(=O)[C@H](Cc1ccc(O)cc1)NC(=O)[C@H](Cc1ccc(O)cc1)NC(=O)[C@H](CCCN=C(N)N)NC(C)=O)C(=O)N[C@@H](CCCCN)C(N)=O` [CAS_200959-48-4], 1.5 nM.
